Source: the METLIN SMRT retention time set (Domingo-Almenara et al. 2019)

Experiment: gradient 5% acetonitrile 3 min, to 50% in 2 min, to 85% in 15 min, held 3 min, 100 µL/min
Conditions: column: Zorbax Extend-C18 2.1 x 50 mm; eluents: water / acetonitrile, 0.1% formic acid
Summary of the method: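 Each retention time is based on an adduct peak selected computationally and verified by manual inspection. Measurements used HPLC–quadrupole time-of-flight mass spectrometry in positive and negative ionization mode on mixtures of ~100 pure standards. Chromatography ran on a Zorbax Extend-C18 column (2.1 × 50 mm, 1.8 μm) at 100 μL/min with water and acetonitrile, each containing 0.1% formic acid, and dead and dwell volumes of 40 μL and 900 μL.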

SMILES	RP-LC retention time
O=C(Nc1ccc2c(c1)C(=O)N1CCCCC1CCO2)c1ccco1 (configuration not stated)	692 s
CCc1nc(-n2cccc2)sc1C(=O)Nc1ccccc1F	1100 s
COc1ccc(C)c2sc(N(CCN(C)C)C(=O)c3cnn(-c4ccccc4)c3C)nc12	632 s
COC(=O)c1ncn2c1C(=O)N(Cc1ccccc1)C(C)(C(=O)NC1CCCCCC1)C2 (configuration not stated)	777 s
CCOc1cc(=O)n2c(c1C(=O)NCc1ccc(C)o1)CCCCC2	688 s
CN1C(=O)C(C)(C)COc2cc(NS(=O)(=O)Cc3cccc(Cl)c3)ccc21	880 s
CCN1C(=O)C2(CCN(C(C)=O)CC2)c2ccccc21	707 s
Cc1cccc(CSc2nnc(CNC(=O)c3ccc(S(=O)(=O)N(C)C)cc3)o2)c1	803 s
Cc1sc2cc(C(=O)N3CCCC3)[nH]c2c1CN1CCCCC1	646 s
CN1CCN(CCNC(=O)C2CCN(Cc3cn(C)c4ccc(Cl)cc34)CC2)CC1	570 s
Cc1oc(-c2ccc(C(=O)NCCCN3CCN(C)CC3)cc2)nc1CSc1ccccc1	645 s
COc1ccc(Cl)cc1NC(=O)C1(c2cccs2)CCCC1	1280 s
COc1cc(OC)c(NC(=O)Cn2nc(C(=O)N3CCCC3)c3ccccc32)cc1Cl	897 s
COCCCNC(=O)C1c2ccccc2CCN1C(C)=O (configuration not stated)	641 s
CC1(C(=O)N2CCCc3ccccc32)Cc2ccccc2C(=O)O1 (configuration not stated)	841 s
Cc1ccccc1Cn1cc(-c2ccncc2)cc1C(=O)N1CCOCC1	621 s
COc1ccc2[nH]cc(CCN3CC(C(=O)Nc4cc(C)cc(C)c4)CC3=O)c2c1 (configuration not stated)	846 s
CCN(c1ccccc1)S(=O)(=O)c1ccc2[nH]c(=O)[nH]c2c1	655 s
Cc1ccc(Cn2nc3ccc(S(=O)(=O)N4CCCC4)cn3c2=O)cc1	895 s

SMILES	RP-LC retention time
Cc1nnc2n1-c1sccc1C(c1ccccc1)=NC2	712 s
Cc1ccc(C)c(N2CCN(C(=O)c3c(C)oc4nc(C)nc(N5CCOCC5)c34)CC2)c1	1020 s
COc1cc(=O)c(C(=O)NC(C)C)nn1-c1ccc(C)cc1	694 s
Cc1cc(C)c(S(=O)(=O)Nc2cccc(-c3cn4cccc(C)c4n3)c2)cc1C	743 s
Cc1cc(N2CCN(C(=O)C(C)Oc3cccc(Cl)c3)CC2)nc2nncn12 (configuration not stated)	644 s
CSc1ccc(-c2noc(CN3C(=O)COc4ccccc43)n2)cc1	1110 s
Cc1cc(C)cc(NC(=O)NCC2CCOCC2)c1	752 s
C=CCn1c(=O)c(=O)n(Cc2ccc(C(=O)N3CCN(c4ncccn4)CC3)cc2)c2ccccc21	722 s
Cc1ccc(NC(=O)N2CCC(n3c(-c4ccco4)nc4cccnc43)C2)cc1 (configuration not stated)	776 s
COc1cccc(C2Cn3nnc(-c4nc(-c5ccc(OCc6ccccc6)cc5)no4)c3CO2)c1 (configuration not stated)	1340 s
CC(C)c1cc(N2CCN(C(=O)C3CC3)CC2)nc2nncn12	586 s
COc1cc2ncc(S(=O)(=O)c3ccc(C)c(C)c3)c(N3CCN(C)CC3)c2cc1OC	629 s
CCCN1C(=O)COc2ccc(-c3noc(C(C)Oc4cccc(Cl)c4)n3)cc21 (configuration not stated)	1260 s
Cc1ccc(Nc2c(-c3ccc(Cl)cc3)nc3ncccn23)cc1C	942 s
Cc1cc(C)cc(NC(=O)Cn2cc(-c3noc(-c4ccncc4)n3)nc2C)c1	735 s
CCN(CC)S(=O)(=O)c1cc(-c2nnc(-c3ccc(OC)cc3)o2)ccc1C	1030 s
CCC(C)NC(=O)Cn1cnc2nc(N3CCCC(C(=O)NC4CC4)C3)sc2c1=O (configuration not stated)	610 s
CCC(C)NC(=O)N1CCN(Cc2nc3cc(C(=O)N(CC)CC)ccc3o2)CC1 (configuration not stated)	619 s
